{"source": "patent US8956622B2", "about": "“Peptidic antagonists of class III semaphorins/neuropilins complexes” (INSERM—Institut National de la Sante et de la Recherche …, priority 2005, dated 2015)", "key": {"PC12 cells": {"tested_on": "PC12 cells", "assay": "PC12 cell differentiation / neuritic outgrowth assay", "type": "cell-based", "conditions": "peptide 10^−9 M", "protocol": "To further investigate the biochemical consequence of the TM-NRP1 in terms of receptor complex formation, we analyzed the formation of complexes in the PC12 neuronal cells model.\nPC12 (ATCC: CRL-1721) were grown in D-MEM medium with 4.5 g of glucose/L (GIBCO), 5% FVS, 10% horse serum, glutamine 580 mg/L and antibiotics. For functional assays, PC12 were cultured on 12-wells plates with previously poly-L-lysine-coated glass coverslips. PC12 cells were incubated 1 h with or without pTM-NRP1 peptide (10^−9M) at 37° C. Culture medium was removed and replaced by NGF-containing (100 ng/mL; GIBCO) serum free medium or by conditioned medium obtained from HEK293 cells stably expressing Sema3A or non-transfected cells (control, see BAGNARD et al., 1998 for details) for 12 h at 37° C.\nCells were fixed with 2% formaldehyde for 30 mn followed by 15 mn in 4% formaldehyde. For each condition tested, around 400 cells were analyzed to evaluate neuritic outgrowth (Statistical analyses were made by using χ^2 test)."}, "NRP1": {"target": "T1, NRP1 (Rattus norvegicus, UniProt Q9QWJ9)", "T1 construct": "Rat C6 glioma cells, which express semaphorin receptors; endogenous in cells; host or cells: rat C6 glioma cells", "assay": "AP-Sema3A binding to its receptor NRP1 on C6 glioma cells (luminescence)", "protocol": "In order to investigate the NRP1 transmembrane domain role in the linkage NRP1-class III semaphorins, the binding of the ligand Sema3A to its receptor NRP1 on glioma cells was measured in the presence or not of the transmembrane domain peptide of NRP1 (pTM-NRP1 peptide; SEQ ID NO. 1) or of a mutated peptide (mpTM-NRP1; SEQ ID NO. 20, […]). These pTM-NRP1 Peptides have been synthesized by automatic peptidic synthesis (Fmoc chemistry, APPLIED SYSTEM), and analyzed by mass spectrometry. Peptides purity has been estimated by RP-HPLC (BECKMAN) as higher than 90%.\nRat C6 glioma cells, which express semaphorin receptors, has been used to determine the binding capacity of AP-Sema3A, a secreted alkaline phosphatase version of Sema 3A (ADAMS et al., 1997, BAGNARD et al., 1998). These cells were grown and plated in MEM medium (GIBCO) with 10% foetal calf serum (PERBIO), glutamine 0.5 mM (GIBCO) and antibiotics: 100 U/ml penicillin and 100 μg/ml streptomycin (SIGMA).\nC6 Cells were cultured in 96-well plates and incubated with or without freshly diluted pTM-NRP1 or pTM-NRP1^mut peptides (10^−12 M to 10^−10 M) for 1 hour at 37° C. The culture medium has been then replaced by conditioned medium of HEK cells stably transfected with a construction expressing AP-Sema 3A (ADAMS et al., EMBO J., vol. 16(20), p: 6077-86, 1997; BAGNARD et al., 1998). Conditioned medium from HEK non transfected cells has been used as an internal control. The pTM-NRP1 Peptide has been synthesized by automatic peptidic synthesis (Fmoc chemistry, APPLIED SYSTEM), and analyzed by mass spectrometry. Peptides purity has been estimated by RP-HPLC (BECKMAN) as higher than 90%, the cells have been washed with PBS and incubated with 50 μl of alkaline phosphatase luminescent substrate (AMERSHAM). The luminescence has been read after 15 minutes with MICROLUMAT PLUS system (BERTHOLD TECHNOLOGIES) according to the manufacturer's instructions. Experiments were done 4 times for each peptide."}, "[1]": {"tested_on": "COS-1 cells expressing NRP1 and Plexin-A1", "assay": "COS cellular collapses triggered by Sema3A", "type": "cell-based", "conditions": "peptide 10^−9 M, 1 hour pre-incubation, Sema 3A 4 hours", "protocol": "Nevertheless, the artificial expression of NRP1 and Plexin-A1 in COS cells allows Sema 3A to trigger cellular collapses. To investigate the effect of the pTM-NRP1 peptide on the Sema3A functional properties, the shape of COS cells expressing NRP1 and Plexin-A1 was analyzed in the presence or not of Sema 3A and of pTM-NRP1 or pTM-NRP1^mut peptide.\nCOS-1 cells have been transfected by 1 μg of pBK-CMV (STRATAGENE) plasmids containing NRP1 and plexin-A1 coding sequences (provided by Pr. PUSCHEL; MUNSTER Universitat, Germany) with LIPOFECTAMINE 2000 (IN VITROGEN) according to the manufacturer's instructions in 6-well plates. Stably COS-1 transfected cells have been selected with 0.7% geneticine. Stably transfected COS-1 cells have been cultured on 12-well plates with previously poly-L-lysine-coated glass coverslips. Cells have been then incubated 1 hour with pTM-NRP1 or pTM-NRP1^mut peptide (10^−9M) at 37° C. The culture medium has been then removed and replaced by conditioned medium of HEK cells stably transfected or not with a construction expressing Sema 3A (100 μl/ml D-MEM) for 4 hours at 37° C. Finally, cells have been fixed with 2% formaldehyde for 30 minutes followed by 15 minutes in formaldehyde 4%. For each condition tested, about 400 cells have been analyzed."}}}
{"sequence": "ILITIIAMSALGVLLGAVCGVVL [pTM-NRP1]", "values": [{"measurement": "NGF effect on PC12 cell differentiation", "setting": "PC12 cells; NGF 100 ng/mL 12 h", "value": "preserved"}, {"measurement": "Sema3A induced neurite growth promotion", "setting": "PC12 cells; Sema3A conditioned medium 12 h", "value": "significantly reduced"}, {"measurement": "decrease of binding of AP-Sema3A to NRP1 compared to the absence of peptide", "setting": "NRP1; C6 cells, peptide 10^−10 M", "value": "about 50%"}, {"measurement": "binding of AP-Sema3A to its receptor NRP1 on C6 cells", "setting": "NRP1; peptide 10^−12 M to 10^−10 M, 1 hour", "value": "blocked in a dose dependent manner"}, {"measurement": "effect on cellular collapses of COS-1 cells triggered by Sema 3A", "setting": "[1]", "value": "completely abolished"}]}
